Measurements published in patent publication US10383831B2, “2,4,6-trialkoxystryl aryl sulfones, sulfonamides and carboxamides, and methods of preparation and use” (Temple University—Of The Commonwealth System Of Higher …, priority 2015, dated 2019).

Assays:
Assay type in all cases: cell-based
[1] = test system: tumor cell lines; test: Cytotoxicity assay, comparison across the cell lines listed in Table 18; conditions: across a wide range of tumor cell lines
Procedure: (§1) Cells of the cell lines listed in Table 18 (1×10^5) were plated into 6-well dishes. Twenty-four hours later, the compound of Example 1, i.e., (Z)-ethyl 3-((2-methoxy-5-(((E)-2,4,6-trimethoxystyrylsulfonyl)methyl) phenyl)amino)acrylate, or the compound of Comparative Example 1, i.e., sodium (E)-2-(5-((2,4,6-trimethoxystyrylsulfonyl)methyl)-2-methoxyphenylamino) acetate (rigosertib) was added at different concentrations over a 4 log dilution (0.001 to 10 μM). The total number of viable cells was determined after 96 hours of continuous treatment by staining with trypan blue and counting the number of non-staining cells (viable) remaining in each well using a hemacytometer. The percentage of viable cells remaining was calculated as follows: # viable cells (compound treated)/# viable cells (DMSO treated)*100. The GI50 (the concentration of drug resulting in 50% net loss of growth inhibition) was determined.

[2] = test system: N417; test: Cytotoxicity assay (viable cell count, trypan blue), N417; conditions: N417, Small Cell Lung Carcinoma; 96 hours continuous treatment
Procedure: as §1

[3] = test system: PC-3; test: Cytotoxicity assay (viable cell count, trypan blue), PC-3; conditions: PC-3, Prostate; 96 hours continuous treatment
Procedure: as §1

[4] = test system: GRANTA-519; test: Cytotoxicity assay (viable cell count, trypan blue), GRANTA-519; conditions: GRANTA-519, Mantle Cell Lymphoma; 96 hours continuous treatment
Procedure: as §1

[5] = test system: MOLT-4; test: Cytotoxicity assay (viable cell count, trypan blue), MOLT-4; conditions: MOLT-4, T-Cell Lymphoma; 96 hours continuous treatment
Procedure: as §1

[6] = test system: UM-UC-3; test: Cytotoxicity assay (viable cell count, trypan blue), UM-UC-3; conditions: UM-UC-3, Bladder; 96 hours continuous treatment
Procedure: as §1

[7] = test system: Caov-3; test: Cytotoxicity assay (viable cell count, trypan blue), Caov-3; conditions: Caov-3, Ovarian; 96 hours continuous treatment
Procedure: as §1

[8] = test system: T-24; test: Cytotoxicity assay (viable cell count, trypan blue), T-24; conditions: T-24, Bladder; 96 hours continuous treatment
Procedure: as §1

[9] = test system: MIA-PaCa-2; test: Cytotoxicity assay (viable cell count, trypan blue), MIA-PaCa-2; conditions: MIA-PaCa-2, Pancreatic; 96 hours continuous treatment
Procedure: as §1

[10] = test system: HCT-15; test: Cytotoxicity assay (viable cell count, trypan blue), HCT-15; conditions: HCT-15, Colo-Rectal; 96 hours continuous treatment
Procedure: as §1

[11] = test system: A549; test: Cytotoxicity assay (viable cell count, trypan blue), A549; conditions: A549, Non-Small Cell Lung Carcinoma; 96 hours continuous treatment
Procedure: as §1

[12] = test system: 2008; test: Cytotoxicity assay (viable cell count, trypan blue), 2008; conditions: 2008, Ovarian; 96 hours continuous treatment
Procedure: as §1

[13] = test system: Z1385; test: Cytotoxicity assay (viable cell count, trypan blue), Z1385; conditions: Z1385, Mantle Cell Lymphoma; 96 hours continuous treatment
Procedure: as §1

[14] = test system: RS4; 11; test: Cytotoxicity assay (viable cell count, trypan blue), RS4; 11; conditions: 11, ALL-B-Cell Precursor, 96 hours continuous treatment
Procedure: as §1

[15] = test system: DAUDI; test: Cytotoxicity assay (viable cell count, trypan blue), DAUDI; conditions: B-Cell Lymphoma, 96 hours continuous treatment
Procedure: as §1

[16] = test system: WM1617; test: Cytotoxicity assay (viable cell count, trypan blue), WM1617; conditions: WM1617, Melanoma; 96 hours continuous treatment
Procedure: as §1

[17] = test system: H1299; test: Cytotoxicity assay (viable cell count, trypan blue), H1299; conditions: H1299, Non-Small Cell Lung Carcinoma; 96 hours continuous treatment
Procedure: as §1

[18] = test system: 5367; test: Cytotoxicity assay (viable cell count, trypan blue), 5367; conditions: 5367, Bladder; 96 hours continuous treatment
Procedure: as §1

[19] = test system: MDA-MB-231; test: Cytotoxicity assay (viable cell count, trypan blue), MDA-MB-231; conditions: MDA-MB-231, Breast; 96 hours continuous treatment
Procedure: as §1

[20] = test system: DU145; test: Cytotoxicity assay (viable cell count, trypan blue), DU145; conditions: DU145, Prostate; 96 hours continuous treatment
Procedure: as §1

[21] = test system: K562; test: Cytotoxicity assay (viable cell count, trypan blue), K562; conditions: K562, Chronic Myelogenous Leukemia; 96 hours continuous treatment
Procedure: as §1

[22] = test system: HCT-116; test: Cytotoxicity assay (viable cell count, trypan blue), HCT-116; conditions: HCT-116, Colo-Rectal; 96 hours continuous treatment
Procedure: as §1

[23] = test system: CEM; test: Cytotoxicity assay (viable cell count, trypan blue), CEM; conditions: T-Cell Lymphoma, 96 hours continuous treatment
Procedure: as §1

[24] = test system: HT-29; test: Cytotoxicity assay (viable cell count, trypan blue), HT-29; conditions: HT-29, Colo-Rectal; 96 hours continuous treatment
Procedure: as §1

[25] = test system: DU145 (prostate cancer); test: Cytotoxicity assay, DU145 tumor cells; conditions: Homo sapiens, DU-145, 96 hours treatment
Procedure: (§2) The effect of the compounds of the invention on tumor cells was determined by the assay described by Latham et al., Oncogene 12:827-837 (1996). Tumor cells K562 (chronic myelogenous leukaemia) or DU145 (prostate cancer) were plated in 12-well dishes at a cell density of 2.5×10^4 cells well. The plated cells were treated 24 hours later with a compound of the invention dissolved in DMSO at multiple concentrations ranging from 0.001 to 10 μM. The plates were examined 96 hours later under an inverted microscope, Olympus CK-2 using a 10× objective, and compound activity was noted by physical observation. When necessary, the total number of viable cells was determined by trypsinizing the wells and counting the number of viable cells, as determined by trypan blue exclusion, using a hemacytometer.

[26] = test system: K562 (chronic myelogenous leukaemia); test: Cytotoxicity assay, K562 tumor cells; conditions: Homo sapiens, 96 hours treatment
Procedure: as §2

## CCOC(=O)/C=C\Nc1cc(CS(=O)(=O)/C=C/c2c(OC)cc(OC)cc2OC)ccc1OC [(Z)-ethyl 3-((2-methoxy-5-(((E)-2,4,6-trimethoxystyrylsulfonyl)methyl)phenyl)amino)acrylate]
[1]
  fold more cytotoxic than Rigosertib: 10-100 fold

## COc1cc(OC)c(/C=C/S(=O)(=O)Cc2ccc(OC)c(NCC(=O)O)c2)c(OC)c1 [Comparative Example 1, Sodium (E)-2-(5-((2,4,6-trimethoxystyrylsulfonyl)methyl)-2-methoxyphenylamino) acetate, reference compound]
[2]
  GI50: 100 nM
[3]
  GI50: 75 nM
[4]
  GI50: 40 nM
[5]
  GI50: 40 nM
[6]
  GI50: 50 nM
[7]
  GI50: 150 nM
[8]
  GI50: 70 nM
[9]
  GI50: 150 nM
[10]
  GI50: 200 nM
[11]
  GI50: 75 nM
[12]
  GI50: 100 nM
[13]
  GI50: 40 nM
[14]
  GI50: 75 nM
[15]
  GI50: 75 nM
[16]
  GI50: 300 nM
[17]
  GI50: 200 nM
[18]
  GI50: 100 nM
[19]
  GI50: 90 nM
[20]
  GI50: 150 nM
[21]
  GI50: 120 nM
[22]
  GI50: 100 nM
[23]
  GI50: 40 nM
[24]
  GI50: 250 nM

## COc1cc(OC)c(/C=C/S(=O)(=O)Cc2ccc(OC)c(N/C=C\C(C)=O)c2)c(OC)c1 [Ex. 2, (Z)-4-((2-Methoxy-5-(((E)-2,4,6-trimethoxystyrylsulfonyl)methyl)phenyl)amino)but-3-en-2-one]
[25]
  IC50: 0.1 µM
[26]
  IC50: 0.1 µM

## COC(=O)/C=C\Nc1cc(CS(=O)(=O)/C=C/c2c(OC)cc(OC)cc2OC)ccc1OC [Ex. 3, (Z)-methyl 3-((2-methoxy-5-(((E)-2,4,6-trimethoxystyrylsulfonyl)methyl)phenyl)amino) acrylate]
[25]
  IC50: 0.004 µM
[26]
  IC50: 0.004 µM

## COc1ccc(C(=O)/C=C\Nc2cc(CS(=O)(=O)/C=C/c3c(OC)cc(OC)cc3OC)ccc2OC)cc1 [Ex. 4, (Z)-1-(4-methoxyphenyl)-3-((2-methoxy-5-(((E)-2,4,6-trimethoxystyrylsulfonyl)methyl)phenyl)amino)prop-2-en-1-one]
[25]
  IC50: 0.05 µM
[26]
  IC50: 0.05 µM

## COc1cc(OC)c(/C=C/S(=O)(=O)Cc2ccc(OC)c(N/C=C\C(=O)c3cc(OC)c(OC)c(OC)c3)c2)c(OC)c1 [Ex. 5, (Z)-1-(3,4,5-trimethoxyphenyl)-3-((2-methoxy-5-(((E)-2,4,6-trimethoxystyrylsulfonyl)methyl)phenyl)amino) prop-2-en-1-one]
[25]
  IC50: 0.009 µM

## COc1cc(OC)c(/C=C/S(=O)(=O)Cc2ccc(OC)c(N/C=C\C(=O)c3cc(OC)c(OC)c(OC)c3Cl)c2)c(OC)c1 [Ex. 7, (Z)-1-(2-chloro-3,4,5-trimethoxyphenyl)-3-((2-methoxy-5-(((E)-2,4,6-trimethoxystyrylsulfonyl)methyl)phenyl)amino)prop-2-en-1-one]
[25]
  IC50: 0.05 µM
[26]
  IC50: 0.05 µM

## COc1cc(OC)c(/C=C/S(=O)(=O)Cc2ccc(OC)c(N/C=C\C(=O)c3cc(OC)c(OC)c(OC)c3Br)c2)c(OC)c1 [Ex. 8, (Z)-1-(2-bromo-3,4,5-trimethoxyphenyl)-3-((2-methoxy-5-(((E)-2,4,6-trimethoxystyrylsulfonyl)methyl)phenyl)amino)prop-2-en-1-one]
[25]
  IC50: 0.075 µM
[26]
  IC50: 0.075 µM

## C#CCN(CC#C)c1cc(CS(=O)(=O)/C=C/c2c(OC)cc(OC)cc2OC)ccc1OC [Ex. 161, (E)-2-methoxy-N,N-di(prop-2-yn-1-yl)-5-(((2,4,6-trimethoxystyryl)sulfonyl)-methyl)aniline]
[25]
  IC50: 2.5 µM
[26]
  IC50: 2.5 µM

## COc1cc(OC)c(/C=C/S(=O)(=O)Cc2ccc(OC)c(NC(=O)/C=C\C(=O)O)c2)c(OC)c1 [Ex. 171, (Z)-4-((2-methoxy-5-(((E)-2,4,6-trimethoxystyrylsulfonyl)methyl)phenyl)amino)-4-oxobut-2-enoic acid]
[25]
  IC50: 2 µM
[26]
  IC50: 2 µM

## COC(=O)/C=C\C(=O)Nc1cc(CS(=O)(=O)/C=C/c2c(OC)cc(OC)cc2OC)ccc1OC [Ex. 176, (Z)-methyl 4-((2-methoxy-5-(((E)-2,4,6-trimethoxystyrylsulfonyl)methyl)phenyl)amino)-4-oxobut-2-enoate]
[25]
  IC50: 2 µM
[26]
  IC50: 0.25 µM

## CCOC(=O)/C=C/CNc1cc(CS(=O)(=O)/C=C/c2c(OC)cc(OC)cc2OC)ccc1OC [Ex. 181, (E)-Ethyl 4-((2-methoxy-5-(((E)-2,4,6-trimethoxystyrylsulfonyl)methyl)phenyl)amino)but-2-enoate]
[25]
  IC50: 0.25 µM
[26]
  IC50: 0.25 µM

## COc1cc(OC)c(/C=C/S(=O)(=O)Cc2ccc(OC)c(NC(=O)/C=C/C(=O)O)c2)c(OC)c1 [Ex. 186, (E)-4-((2-methoxy-5-(((E)-2,4,6-trimethoxystyrylsulfonyl)methyl)phenyl)amino)-4-oxobut-2-enoic acid]
[25]
  IC50: 2 µM
[26]
  IC50: 2 µM

## CCOC(=O)C(=CNc1cc(CS(=O)(=O)/C=C/c2c(OC)cc(OC)cc2OC)ccc1OC)C(=O)OCC [Ex. 191, (E)-diethyl-2-(((2-methoxy-5-(((2,4,6-trimethoxystyryl)sulfonyl)methyl)phenyl)-amino)methylene)malonate]
[25]
  IC50: 2 µM
[26]
  IC50: 2 µM

## C=CC(=O)Nc1cc(CS(=O)(=O)/C=C/c2c(OC)cc(OC)cc2OC)ccc1OC [Ex. 201, (E)-N-(2-methoxy-5-(((2,4,6-trimethoxystyryl)sulfonyl)methyl)phenyl)acrylamide]
[25]
  IC50: 0.75 µM
[26]
  IC50: 0.75 µM
